For 17 molecules, IC50 and melting point results are on record in paper PMC8820799, “Angiogenesis and anti-leukaemia activity of novel indole derivatives as potent colchicine binding site inhibitors” (Journal of Enzyme Inhibition and Medicinal Chemistry, 2022).

Some results are limits rather than exact numbers.

One series deals with T1, Tubulin isolated from porcine brain tissue (Sus scrofa, UniProt P02550+P02554).
T1 construct: purchased Cytoskeleton (Denver, CO), via Beyotime, China; host or cells: porcine brain tissue
T1 sequence (P02554 whole entry): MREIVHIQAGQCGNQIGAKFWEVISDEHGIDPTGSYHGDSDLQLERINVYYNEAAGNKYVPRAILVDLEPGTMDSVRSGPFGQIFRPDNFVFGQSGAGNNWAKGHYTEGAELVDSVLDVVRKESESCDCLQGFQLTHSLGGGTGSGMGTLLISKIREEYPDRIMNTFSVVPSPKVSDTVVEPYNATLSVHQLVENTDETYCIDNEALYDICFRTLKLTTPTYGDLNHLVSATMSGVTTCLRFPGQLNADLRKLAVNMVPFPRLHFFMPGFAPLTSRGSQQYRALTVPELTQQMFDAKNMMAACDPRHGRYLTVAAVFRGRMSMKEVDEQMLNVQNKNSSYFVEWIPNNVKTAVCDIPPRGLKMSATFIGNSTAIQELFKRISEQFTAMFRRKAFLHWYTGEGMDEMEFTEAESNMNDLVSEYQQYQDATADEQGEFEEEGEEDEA
T1 sequence (P02550 whole entry): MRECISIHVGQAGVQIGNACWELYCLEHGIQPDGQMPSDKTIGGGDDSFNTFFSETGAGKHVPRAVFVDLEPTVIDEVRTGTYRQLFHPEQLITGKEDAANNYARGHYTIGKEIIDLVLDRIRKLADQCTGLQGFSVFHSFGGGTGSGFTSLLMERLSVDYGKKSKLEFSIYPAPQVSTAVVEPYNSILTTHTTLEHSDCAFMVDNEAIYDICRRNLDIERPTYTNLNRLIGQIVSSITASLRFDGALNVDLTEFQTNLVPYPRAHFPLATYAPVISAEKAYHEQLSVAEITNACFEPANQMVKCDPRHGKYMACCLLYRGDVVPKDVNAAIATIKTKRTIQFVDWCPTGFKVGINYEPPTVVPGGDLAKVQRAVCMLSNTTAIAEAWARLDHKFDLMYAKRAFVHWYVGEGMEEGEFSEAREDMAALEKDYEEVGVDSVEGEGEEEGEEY
Description: Tubulin polymerisation assay. To be noted: triplicate, mean ± SD; read-out: Tubulin (tubulin inhibitory polymerisation IC50). In kind it is biochemical. On the procedure: Tubulin polymerisation was determined with the tubulin polymerisation assay kit (Cytoskeleton, Denver, CO which was purchased from Cytoskeleton, Beyotime, China. Tubulin isolated from porcine brain tissue was used in this commercial kit.) It is based on the principal that light is scattered by microtubules to an extent that is proportional to the concentration of the microtubule polymer. Compounds that interact with tubulin will alter the polymerisation of tubulin, and this can be detected using a spectrophotometer. Tubulin polymerisation dynamics was monitored through measuring the change of absorbance at 340 nm every 2 min for 30 min at 37 °C on a spectrophotometer.
Turning to `COc1cc(C(=O)C=Cc2c[nH]c3ccccc23)cc(OC)c1OC` [Compound 6], the IC50 (usually the concentration needed to halve the response being measured) was determined as 8.5 ± 1.2 µM. The same measure, in the same setting: the same measure for `COc1cc(C(=O)C=Cc2cc3ccccc3o2)cc(OC)c1OC` [Compound 7]: 18.6 ± 0.5 µM; for `COc1cc(C(=O)C=Cc2ccc3sc4ccccc4c3c2)cc(OC)c1OC` [Compound 8]: 45.7 ± 2.3 µM; for `COc1cc(C(=O)C=Cc2nc3ccccc3[nH]2)cc(OC)c1OC` [Compound 9]: 20.8 ± 1.4 µM. For the molecule `Cn1cc(/C=C/C(=O)c2ccccc2)c2ccccc21` [Compound 23a, (E)-3–(1-Methyl-1H-indol-3-yl)-1-phenylprop-2-en-1-one], the IC50 was over 100 µM.

For `CCn1cc(/C=C/C(=O)c2ccccc2)c2ccccc21` [Compound 23b, (E)-3–(1-Ethyl-1H-indol-3-yl)-1-phenylprop-2-en-1-one], the IC50 was over 100 µM. With `CCCn1cc(/C=C/C(=O)c2ccccc2)c2ccccc21` [Compound 23c, (E)-1-Phenyl-3–(1-propyl-1H-indol-3-yl)prop-2-en-1-one], the IC50 is over 100 µM. With `O=C(/C=C/c1cn(Cc2ccccc2)c2ccccc12)c1ccccc1` [Compound 23d, (E)-3–(1-Benzyl-1H-indol-3-yl)-1-phenylprop-2-en-1-one], the IC50 is 68.6 ± 3.2 µM. On to `O=C(/C=C/c1cn(S(=O)(=O)c2ccccc2)c2ccccc12)c1ccccc1` [Compound 23e, (E)-1-Phenyl-3–(1-(phenylsulfonyl)-1H-indol-3-yl)prop-2-en-1-one], for which the IC50 is over 100 µM. As for `Cn1cc(/C=C/C(=O)c2cccc(Cl)c2)c2ccccc21` [Compound 24a, (E)-1–(3-Chlorophenyl)-3–(1-methyl-1H-indol-3-yl)prop-2-en-1-one], the IC50 was over 100 µM. With `CCn1cc(/C=C/C(=O)c2cccc(Cl)c2)c2ccccc21` [Compound 24b, (E)-1–(3-Chlorophenyl)-3–(1-ethyl-1H-indol-3-yl)prop-2-en-1-one], the IC50 was over 100 µM. For the molecule `CCCn1cc(/C=C/C(=O)c2cccc(Cl)c2)c2ccccc21` [Compound 24c, (E)-1–(3-Chlorophenyl)-3–(1-propyl-1H-indol-3-yl)prop-2-en-1-one], the IC50 was over 100 µM. Still for that read-out and setting: the same measure for `O=C(/C=C/c1cn(Cc2ccccc2)c2ccccc12)c1cccc(Cl)c1` [Compound 24d, (E)-3–(1-Benzyl-1H-indol-3-yl)-1–(3-chlorophenyl)prop-2-en-1-one]: over 100 µM; for `O=C(/C=C/c1cn(S(=O)(=O)c2ccccc2)c2ccccc12)c1cccc(Cl)c1` [Compound 24e, (E)-1–(3-Chlorophenyl)-3–(1-(phenylsulfonyl)-1H-indol-3-yl)prop-2-en-1-one]: 92.3 ± 2.4 µM. On the same count and under the same terms, next, `Cn1cc(/C=C/C(=O)c2ccc(Cl)cc2)c2ccccc21` [Compound 25a, (E)-1–(4-chlorophenyl)-3–(1-methyl-1H-indol-3-yl)prop-2-en-1-one]: over 100 µM; `CCn1cc(/C=C/C(=O)c2ccc(Cl)cc2)c2ccccc21` [Compound 25b, (E)-1–(4-chlorophenyl)-3–(1-ethyl-1H-indol-3-yl)prop-2-en-1-one]: over 100 µM. On the same count and under the same terms, the same measure for `CCCn1cc(/C=C/C(=O)c2ccc(Cl)cc2)c2ccccc21` [Compound 25c, (E)-1–(4-chlorophenyl)-3–(1-propyl-1H-indol-3-yl)prop-2-en-1-one]: over 100 µM.

Another series deals with transgenic zebrafish (FLK-1:EGFP). Description: Zebrafish angiogenesis assay (ISVs). In kind it is in vivo. To be noted: Danio rerio, transgenic zebrafish; triplicate, mean ± SD; read-out: Zebrafish (antiangiogenic activity IC50). On the procedure: The transgenic flk: enhanced GFP zebrafish embryos were generated by pair-wise mating, collected and sorted into the 6-well plate (n = 30 per well) with 1 ml of aquaculture water (0.2 g/L of Instant Ocean Salt in distilled water) and raised at 28 °C. Then the embryos staged at 12 h post fertilisation (hpf) were treated with the indicated concentrations of compounds which were added into embryo water. About 30 embryos were screened for each concentration gradient. At 30hpf, the treated embryos were anaesthetised with 0.02% tricaine in embryo water and photographed. The numbers of ISVs were recorded under confocal microscopy. Results were obtained from three independent determinations and presented as mean ± SD.[38]
Turning to `COc1cc(C(=O)C=Cc2c[nH]c3ccccc23)cc(OC)c1OC` [Compound 6], the IC50 was found to be 27.8 ± 0.9 µM.

`COc1cc(C(=O)C=Cc2cc3ccccc3o2)cc(OC)c1OC` [Compound 7]: the IC50 was determined as 29.5 ± 1.5 µM. On to `COc1cc(C(=O)C=Cc2ccc3sc4ccccc4c3c2)cc(OC)c1OC` [Compound 8], for which the IC50 came out at 68.6 ± 2.1 µM.

As for `COc1cc(C(=O)C=Cc2nc3ccccc3[nH]2)cc(OC)c1OC` [Compound 9], the IC50 is over 100 µM.

System in the next series: not given
Test: not given
Conditions: not given
For the molecule `CCn1cc(/C=C/C(=O)c2ccccc2)c2ccccc21` [Compound 23b, (E)-3–(1-Ethyl-1H-indol-3-yl)-1-phenylprop-2-en-1-one], the melting point (usually the temperature, or range, at which the solid turns liquid) fell in the range of 165 to 168 °C. `CCCn1cc(/C=C/C(=O)c2ccccc2)c2ccccc21` [Compound 23c, (E)-1-Phenyl-3–(1-propyl-1H-indol-3-yl)prop-2-en-1-one] showed a melting point of 161 to 162 °C. As for `O=C(/C=C/c1cn(Cc2ccccc2)c2ccccc12)c1ccccc1` [Compound 23d, (E)-3–(1-Benzyl-1H-indol-3-yl)-1-phenylprop-2-en-1-one], the melting point was 161 to 163 °C. For the molecule `O=C(/C=C/c1cn(S(=O)(=O)c2ccccc2)c2ccccc12)c1ccccc1` [Compound 23e, (E)-1-Phenyl-3–(1-(phenylsulfonyl)-1H-indol-3-yl)prop-2-en-1-one], the melting point was 165 to 168 °C. In turn, `Cn1cc(/C=C/C(=O)c2cccc(Cl)c2)c2ccccc21` [Compound 24a, (E)-1–(3-Chlorophenyl)-3–(1-methyl-1H-indol-3-yl)prop-2-en-1-one] displayed a melting point of 173 to 175 °C. The same measure, in the same setting: next, `CCn1cc(/C=C/C(=O)c2cccc(Cl)c2)c2ccccc21` [Compound 24b, (E)-1–(3-Chlorophenyl)-3–(1-ethyl-1H-indol-3-yl)prop-2-en-1-one]: 165 to 168 °C; `CCCn1cc(/C=C/C(=O)c2cccc(Cl)c2)c2ccccc21` [Compound 24c, (E)-1–(3-Chlorophenyl)-3–(1-propyl-1H-indol-3-yl)prop-2-en-1-one]: 161 to 162 °C; `O=C(/C=C/c1cn(Cc2ccccc2)c2ccccc12)c1cccc(Cl)c1` [Compound 24d, (E)-3–(1-Benzyl-1H-indol-3-yl)-1–(3-chlorophenyl)prop-2-en-1-one]: 161 to 163 °C. For the molecule `O=C(/C=C/c1cn(S(=O)(=O)c2ccccc2)c2ccccc12)c1cccc(Cl)c1` [Compound 24e, (E)-1–(3-Chlorophenyl)-3–(1-(phenylsulfonyl)-1H-indol-3-yl)prop-2-en-1-one], the melting point lay in the range of 165 to 168 °C. In the case of `Cn1cc(/C=C/C(=O)c2ccc(Cl)cc2)c2ccccc21` [Compound 25a, (E)-1–(4-chlorophenyl)-3–(1-methyl-1H-indol-3-yl)prop-2-en-1-one], the melting point is 171 to 173 °C. `CCn1cc(/C=C/C(=O)c2ccc(Cl)cc2)c2ccccc21` [Compound 25b, (E)-1–(4-chlorophenyl)-3–(1-ethyl-1H-indol-3-yl)prop-2-en-1-one] returned a melting point of 165 to 168 °C. Regarding `CCCn1cc(/C=C/C(=O)c2ccc(Cl)cc2)c2ccccc21` [Compound 25c, (E)-1–(4-chlorophenyl)-3–(1-propyl-1H-indol-3-yl)prop-2-en-1-one], the melting point lay within 160 to 162 °C.
